According to patent publication US20130012432A1, “Peptides for Treatment of Obesity” (Novo Nordisk A/S, priority 2010, published 2013):

Biological target: T1, human GLP-1 receptor (Homo sapiens, UniProt P43220)
T1 construct: expressed in transfected cells; purified plasma membranes
Assay: Assay (XI) GLP-1 activity assay, stimulation of cAMP formation
Format: biochemical
Conditions: membranes of BHK467-12A cells expressing human GLP-1 receptor
Excerpt: The capture of cAMP is achieved by using a specific antibody conjugated to acceptor beads.

T1 sequence (P43220 24-463): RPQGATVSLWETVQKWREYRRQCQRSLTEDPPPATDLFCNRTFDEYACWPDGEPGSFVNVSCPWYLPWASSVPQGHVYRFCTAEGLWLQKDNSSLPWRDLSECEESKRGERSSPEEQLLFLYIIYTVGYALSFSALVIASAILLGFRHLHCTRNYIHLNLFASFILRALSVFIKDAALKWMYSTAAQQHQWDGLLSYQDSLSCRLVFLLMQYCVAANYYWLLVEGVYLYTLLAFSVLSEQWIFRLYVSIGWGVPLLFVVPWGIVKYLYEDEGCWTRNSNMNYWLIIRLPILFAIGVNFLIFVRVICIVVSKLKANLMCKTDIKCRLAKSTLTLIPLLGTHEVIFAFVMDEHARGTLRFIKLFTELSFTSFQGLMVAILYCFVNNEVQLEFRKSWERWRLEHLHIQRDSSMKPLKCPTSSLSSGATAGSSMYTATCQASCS

exendin-4(7-45) [SEQ ID NO: 4]
EC50 relative to that of compound G1: about 0.3 times
